The source made the active and inactive calls. No cut-off for these calls is given here.
Tests used:
[1] = system: Mus musculus; assay: Minimum dose required for anticonvulsant activity when given i.p., at 4 hr in mice upon maximal electroshock seizure; format: functional
[2] = system: Rattus norvegicus; assay: Minimum dose required for anticonvulsant activity when given i.p., at 2 hr in mice upon subcutaneous strychnine seizure; Absence of activity; format: functional, organism-based; settings: Mus musculus
[3] = system: Mus musculus; assay: Minimum dose required for anticonvulsant activity when given i.p., at 0.5 hr in mice upon subcutaneous pentylenetetrazole seizure; format: functional
[4] = system: Rattus norvegicus; assay: Number of rats protected at a dose of 30 mg/Kg when given oral at 0.25 hr upon maximal electroshock seizure; Total number of rats = 4; Absence of activity; format: functional, organism-based
[5] = system: Mus musculus; assay: Minimum dose required for anticonvulsant activity when given i.p., at 0.5 hr in mice upon maximal electroshock seizure; format: functional
[6] = system: Mus musculus; assay: Minimum dose required for anticonvulsant activity when given i.p., at 0.5 hr in mice upon neurotoxicity seizure using rotarod test; format: functional
[7] = system: Rattus norvegicus; assay: Number of rats protected at a dose of 30 mg/Kg when given oral at 0.5 hr upon maximal electroshock seizure; Total number of rats = 4; Absence of activity; format: functional, organism-based
[8] = system: Rattus norvegicus; assay: Number of rats protected at a dose of 30 mg/Kg when given oral at 4 hr upon maximal electroshock seizure; Total number of rats = 4; Absence of activity; format: functional, organism-based
[9] = system: Rattus norvegicus; assay: Number of rats protected at a dose of 30 mg/Kg when given oral at 1 hr upon maximal electroshock seizure; Total number of rats = 4; Absence of activity; format: functional, organism-based
[10] = system: Mus musculus; assay: Post treatment immobility time for CNS study using Porsolt's swimpool test at a dose of 100 mg/Kg after 1 hr when given i.p., in mice (No. of animals 6); Control (24h before) 131
[11] = system: Rattus norvegicus; assay: Number of rats protected at a dose of 30 mg/Kg when given oral at 2 hr upon maximal electroshock seizure; Total number of rats = 4; Absence of activity; format: functional, organism-based
[12] = system: Mus musculus; assay: Post treatment activity score for CNS study using a actophotometer at a dose of 100 mg/Kg after 1 hr when given i.p., in mice (No. of animals 6); Control (24h before) 247
[13] = system: Rattus norvegicus; assay: Enzymatic activity to assess the increase in level of SGOT at a dose of 30 mg/Kg for 14 days when given p.o., in 6 rats; Control 73.1; format: functional
[14] = system: Rattus norvegicus; assay: Toxic dose observed for anticonvulsant activity when given i.p., at 2 hr in rat upon neurotoxicity seizure; format: functional; settings: ip
[15] = system: Rattus norvegicus; assay: Number of rats protected at a dose of 30 mg/Kg when given oral at 2 hr upon maximal electroshock seizure; Total number of rats = 4; format: functional
[16] = system: Mus musculus; assay: Minimum dose required for anticonvulsant activity when given i.p., in mice upon neurotoxicity seizure using rotarod test
[17] = system: Rattus norvegicus; assay: Number of rats protected at a dose of 30 mg/Kg when given oral at 1 hr upon maximal electroshock seizure; Total number of rats = 4; format: functional
[18] = system: Mus musculus; assay: Post treatment activity score for CNS study using a actophotometer at a dose of 100 mg/Kg after 0.5 hr when given i.p., in mice (No. of animals 6); Control (24h before) 247
[19] = system: Rattus norvegicus; assay: Toxic dose observed for anticonvulsant activity when given orally at 2 hr in rat upon neurotoxicity seizure; format: functional; settings: po
[20] = system: Rattus norvegicus; assay: Minimum dose required for anticonvulsant activity when given i.p., in mice upon subcutaneous picrotoxin seizure; Absence of activity; format: functional, organism-based; settings: Mus musculus
[21] = system: Rattus norvegicus; assay: Number of rats protected at a dose of 30 mg/Kg when given oral at 4 hr upon maximal electroshock seizure; Total number of rats = 4; format: functional
[22] = system: Rattus norvegicus; assay: Effective dose required for anticonvulsant activity when given i.p., at 2 hr in rat upon maximal electroshock seizure; format: functional; settings: ip
[23] = system: Rattus norvegicus; assay: Minimum dose required for anticonvulsant activity when given i.p., at 0.5 hr in mice upon subcutaneous pentylenetetrazole seizure; Absence of activity; format: functional, organism-based; settings: Mus musculus
[24] = system: Rattus norvegicus; assay: Number of rats protected at a dose of 30 mg/Kg when given oral at 0.5 hr upon maximal electroshock seizure; Total number of rats = 4; format: functional
[25] = system: Rattus norvegicus; assay: Enzymatic activity to assess the increase in level of SGPT at a dose of 30 mg/Kg for 14 days when given p.o., in 6 rats; Control 45.0; format: functional
[26] = system: Rattus norvegicus; assay: Number of rats protected at a dose of 30 mg/Kg when given oral at 0.25 hr upon maximal electroshock seizure; Total number of rats = 4; format: functional

For `NC(=O)N1c2ccccc2C=Cc2ccccc21` [CARBAMAZEPINE], which MES [1] is on record?
Its MES is 100 mg/kg.

And the STY seizure [2]?
Its STY seizure is “inactive”.

And the PTZ seizure [3]?
The PTZ seizure was 100 mg/kg.

And the Activity [4]?
Its Activity is “inactive”.

What about the MES [5] of the same compound?
The MES was 30 mg/kg.

What about the NT [6] of the same compound?
The NT was 100 mg/kg.

What about the Activity [7] of the same compound?
The Activity was “inactive”.

What about the Activity [8] of the same compound?
Its Activity is “inactive”.

What about the Activity [9] of the same compound?
Its Activity is “inactive”.

And the Activity [10]?
The Activity was 207.

And the Activity [11]?
The Activity was “inactive”.

How did the MES [1] turn out when `O=C1NC(=O)C(c2ccccc2)(c2ccccc2)N1` [PHENYTOIN] was run?
The MES was 30 mg/kg.

What about the Activity [12] of the same compound?
The Activity was 106.

And the STY seizure [2]?
The STY seizure was “inactive”.

What about the SGOT activity [13] of the same compound?
Its SGOT activity is 84.1 units/mL.

What about the TD50 [14] of the same compound?
Its TD50 is 42.8 mg/kg.

And the Activity [15]?
Its Activity is 3.

What about the NT [16] of the same compound?
Its NT is 100 mg/kg.

And the MES [5]?
Its MES is 30 mg/kg.

And the Activity [17]?
The Activity was 3.

What about the NT [6] of the same compound?
The NT was 100 mg/kg.

What about the Activity [18] of the same compound?
The Activity was 104.

And the TD50 [19]?
The TD50 was over 500 mg/kg.

What about the PIC seizure [20] of the same compound?
The PIC seizure was “inactive”.

What about the Activity [21] of the same compound?
The Activity was 3.

What about the ED50 [22] of the same compound?
The ED50 was 6.48 mg/kg.

What about the PTZ seizure [23] of the same compound?
Its PTZ seizure is “inactive”.

What about the Activity [24] of the same compound?
Its Activity is 4.

And the SGPT activity [25]?
Its SGPT activity is 52.6 units/mL.

What about the Activity [26] of the same compound?
The Activity was 1.

— ChEMBL document CHEMBL1141099, “Discovery of N-(2,6-dimethylphenyl)-substituted semicarbazones as anticonvulsants: hybrid pharmacophore-based design” (2005)
